# Where two headings read alike, the source gives them in different places.
# Legend:
# [1] = tested on: T. gondii tachyzoites (RH strain); test: T. gondii growth inhibition in HFF monolayers, tritiated uracil uptake; type: cell-based, Toxoplasma gondii
# Experimental: The improvements are based on microscopic visual imspection of infected and inhibitor treated cultures, and on quantitation of nucleic acid synthesis of the parasite by measure intake of ^3H uracil onto the parasite's nucleic acid. Uracil is not utilized by mammalian cells. […] Only the RH strain tachyzoites, cultured for up to 72 hours, had been used in previously reported assays. The use of Me49, Ptg, and R5 mutant are unique aspects of the methods used in these assays in this invention.
# In these assays toxicity of a candidate inhibitor was assessed by its ability to prevent growth of human foreskin fibroblasts (HFF) after 4 days and after 8 days as measured by tritiated thymidine uptake and microscopic evaluation. Confluent monolayers of HFF were infected with tachyzoites and bradyzoites. Inhibitor was added one hour later. Non-toxic doses were used in parasite growth inhibition assays. Parasite growth was measured by ability to incorporate tritiated uracil during the last 18 hours of culture.
# First the toxicity of gabaculine was assessed by its ability to prevent growth of human foreskin fibroblasts (HFF) as measured by ^3H-thymidine uptake and microscopic evaluation. Non-toxic doses were used in parasite growth inhibition assays. in vitro parasite growth inhibition assays included confluent monolayers of HFF infected with tachyzoites (RH) or mutant Me49 (R5). Gabaculine was added 1 hour later. Parasite growth was measured by the ability to incorporate 3H-uracil during the last 18 hours of culture. In addition, parasite growth was evaluated microscopically in Giemsa stained slides.
# Confluent monolayers of HFF cells, grown in 96-well plates are infected with T. gondii tachyzoites of the RH strain and serial dilutions of anti-microbial compound are applied 1 hour later. T. gondii growth is assessed in these cultures by their ability to incorporate tritiated uracil (2.5 μCi/well) added during the last 18 hours of culture. After harvesting cells with an automatic cell harvester, uracil incorporation is measured by liquid scintillation.
# C. parvum = C. parvum infection of MDBKF5D2 cell monolayers, immunofluorescence assay at 48 hours; type: cell-based, Cryptosporidium parvum
# Experimental: C. parvum oocysts at 50,000/well were incubated at 37° C. (8% CO2) on confluent MDBKF5D2 cell monolayers in 96 well microtiter plates with the following concentrations of each drug. […] The level of infection of each well was determined and analyzed by an immunofluorescence assay at 48 hours using an antibody to C. parvum sporozoites made in rabbits at a concentration of 0.1%. Fluorescein-conjugated goat anti-rabbit antibody was used at a concentration of 1%.
# C. parvum oocysts at 50,000/well were incubated with each drug (PRM=paromomycin which is the positive control, NPMG, gabaculine, SHAM, 8-hydroxyquinoline) at 37° C. (8% carbon dioxide) on confluent MDBKF5D2 cell monolayers in 96 well microtiter plates. The level of infection of each well was determined and analyzed by an immunofluorescence assay at 48 hours using as an antibody C. parvum sporozoite rabbit anti-serum (0.1%), and using fluorescein-conjugated goat anti-rabbit antibody (1%). Data are expressed as mean parasite count/field when 16 fields counted at 10× magnification “s.d. of the mean” (FIG. 6).
# T. gondii = T. gondii infection in mice: manifestations, parasitemia, brain cysts; parameters: species or system Toxoplasma gondii
# Description: Cyst numbers present in a suspension of brain are enumerated, or cyst numbers in formalin fixed paraffin embedded sections are quantitated.
# In this competitive PCR method the T. gondii B1 gene is amplified by PCR in the presence of a construct which produces a product slightly smaller than the wild type B1 gene. The amount of construct can be quantitated to semiquantitate the amount of the competing wild type gene.
# A method to measure the amount of parasitemia in mouse peripheral blood has been developed. Briefly, the target for PCR amplification is the 35 fold repetitive B1 gene of T. gondii and the amplification was performed using primers previously reported. […] Competitive PCR was performed by spiking individual reactions (containing equal amounts of genomic DNA) with a dilution of the internal standard. Since this internal control contains the same primer template sequences, it competes with the B1 gene of T. gondii for primer binding and amplification. The sensitivity of the PCR reaction in each sample can be monitored. Following competitive PCR, the PCR products are distinguished by size and the amount of products generated by the target and internal standard can be compared on a gel. The amount of competitor DNA yielding equal amounts of products gives the initial amount of target gene.
# T. gondii tachyzoites = test: TSA-DCA experiments: T. gondii growth in fibroblasts (3H uracil uptake, visual appearance); type: cell-based, Toxoplasma gondii
# Experimental: (§1) Effects of inhibitors of T. gondii in vitro were assessed after 1, 4 or 5 days in tissue culture using fibroblasts infected with […] tachyzoites of T. gondii. Effects in the fibroblasts were scored. Compounds used were TSA-DCA, TSA-Na+, and DCA at various concentrations ranging up to 1 mM. Uptake of ^3H uracil (utilized by T. gondii but not by mammalian cells), and visual appearance of T. gondii in these cells were used to assess parasite growth. Effect of compounds on host cells was studied by microscopic examination and by measuring uptake of tritiated thymidine utilizing a non-confluent monolayer of fibroblasts.
# (§2) The results in table 5 show the greatest inhibitory effect of TSA-DCA and some effect of DCA at a higher concentration. […] “T50” is the concentration at which 50% of the cells were killed (T=toxic) and so forth. […] Analysis was uptake of H3 thymidine. Confirmation was by visual inspection of microscope slides (e.g. FIGS. 15 A-D).
# fibroblasts = test: TSA-DCA experiments: effect on host cells (tritiated thymidine uptake, non-confluent fibroblasts); type: cell-based, human
# Experimental: as §1, §2
# [2] = tested on: D6 clone of Plasmodium falciparum; test: P. falciparum in vitro growth assay (Milhous et al.), D6 clone; type: cell-based; settings: for IC50 / IC90: Plasmodium falciparum
# [3] = tested on: W2 clone of Plasmodium falciparum; test: P. falciparum in vitro growth assay (Milhous et al.), W2 clone; type: cell-based; settings: for IC50 / IC90: Plasmodium falciparum
# [4] = exp. 5/15, day 4, range 12-100 (200) uM, no visual
# [5] = exp. 5/29, day 4, range 125-1000 (2000) uM, no visual
# [6] = exp. 8/23, day 1, range 250-2000 uM
# [7] = D6 clone (second value of each pair), read-out: Concentrations of other compounds that inhibited these clones in this assay
# [8] = W2 clone (first value of each pair), read-out: Concentrations of other compounds that inhibited these clones in this assay
# [9] = D6 clone (second value of each pair)
# [10] = W2 clone (first value of each pair)
smiles,measurement,setting,value
"O=C(NO)c1ccccc1O [SHAM, Salicylhydroxamic acid]",effect against T. gondii,[1],effective against T. gondii
same,restriction of CPM (tritiated uracil incorporation),"[1]; SHAM 0.16 μg/ml, 4 day assay, medium around 54,000 CPM",around 50%
same,counts (tritiated uracil incorporation),"[1]; SHAM 0.78 μg/ml, 4 days, medium around 54,000, no RH around 1,000 CPM","about 8,000 CPM"
same,approximate 95% Cl count (mean parasite count per field),"C. parvum; SHAM 0.1 μg/ml, 0.2% ETOH, media and ethanol ~1200",~1200 count/field
same,approximate 95% Cl count (mean parasite count per field),"C. parvum; SHAM 1 μg/ml, 0.2% ETOH, media and ethanol ~1200",~1100 count/field
same,approximate 95% Cl count (mean parasite count per field),"C. parvum; SHAM 10 μg/ml, 0.2% ETOH, media and ethanol ~1200",~1100 count/field
same,approximate 95% Cl count (mean parasite count per field),"C. parvum; SHAM 100 μg/ml, 0.2% ETOH, media and ethanol ~1200",~400 count/field
same,parasitemia and number of brain cysts in vivo,T. gondii,affects parasitemia and number of brain cysts
"C1CCC(NC2CCCCC2)CC1 [DCA, dicyclohexylamine]",IC50,"T. gondii tachyzoites; Toxoplasma gondii, Fibroblast, 24 h",500 µM
same,IC75,T. gondii tachyzoites; day 1 of culture,1000 µM
same,IC7 5-80,T. gondii tachyzoites; [4],none
same,IC50,T. gondii tachyzoites; [4],none
same,IC7 5-80,T. gondii tachyzoites; [5],none
same,IC50,T. gondii tachyzoites; [5],none
same,IC7 5-80,T. gondii tachyzoites; [6],250 to 500 µM
same,IC7 5-80,"T. gondii tachyzoites; exp. 9/8, day 1, range 125-1000 uM",1000 µM
same,T50,fibroblasts; [4],50 µM
same,T90,fibroblasts; [4],none
same,T50,fibroblasts; [5],none
same,T90,fibroblasts; [5],2000 µM
same,T50,fibroblasts; [6],1000 µM
same,T90,fibroblasts; [6],none
CCc1nc(N)nc(N)c1-c1ccc(Cl)cc1 [Pyrimethamine],IC50,[2]; [7],0.05 ng/mL
same,IC50,[3]; [8],0.0821 µg/mL
CCCCN(CCCC)CCC(O)c1cc2c(Cl)cc(Cl)cc2c2cc(C(F)(F)F)ccc12 (stereo not drawn) [HAL],Concentrations of other compounds that inhibited these clones in this assay,[2]; [9],0.51 ng/mL
same,Concentrations of other compounds that inhibited these clones in this assay,[3]; [10],0.33 ng/mL
O=C1C(O)=C([C@H]2CC[C@H](c3ccc(Cl)cc3)CC2)C(=O)c2ccccc21 [Atovaquovone],Concentrations of other compounds that inhibited these clones in this assay,[2]; [9],0.12 ng/mL
same,Concentrations of other compounds that inhibited these clones in this assay,[3]; [10],0.13 ng/mL
Nc1ccc(S(=O)(=O)Nc2ncccn2)cc1 [Sulfadiazine],reduction of growth of T. gondii,"[1]; sulphadiazine 1.56 μmg/ml, 4 days, medium about 36,000 CPM",about 60%
same,manifestations of infection in vivo,T. gondii,reduced manifestations of infection
NC[C@@H]1O[C@H](O[C@H]2[C@@H](O)[C@H](O[C@@H]3[C@@H](O)[C@H](N)C[C@H](N)[C@H]3O[C@H]3O[C@H](CO)[C@@H](O)[C@H](O)[C@H]3N)O[C@@H]2CO)[C@H](N)[C@@H](O)[C@@H]1O [PRM],approximate 95% Cl count (mean parasite count per field),"C. parvum; paromomycin with ethanol (positive control), media and ethanol ~1200",~100 count/field
same,approximate 95% Cl count (mean parasite count per field),"C. parvum; paromomycin without ethanol (positive control), media alone ~1800",~200 count/field
"Oc1cccc2cccnc12 [8-OH-quinoline, 8-hydroxyquinoline]",effect against T. gondii,[1],effective against T. gondii
same,approximate 95% Cl count (mean parasite count per field),"C. parvum; 8-OH-quinoline 0.1 μg/ml, media alone ~1800",~1300 count/field
same,approximate 95% Cl count (mean parasite count per field),"C. parvum; 8-OH-quinoline 1 μg/ml, media alone ~1800",~1100 count/field
same,approximate 95% Cl count (mean parasite count per field),"C. parvum; 8-OH-quinoline 10 μg/ml, media alone ~1800",~900 count/field
same,approximate 95% Cl count (mean parasite count per field),"C. parvum; 8-OH-quinoline 100 μg/ml, media alone ~1800",~300 count/field
same,IC50,[2]; D6,1200 ng/mL
same,IC90,[2]; D6,1.88 µg/mL
same,IC50,[3]; W2,1.63 µg/mL
same,IC90,[3]; W2,4.52 µg/mL
"O=C(O)CC[N+](=O)[O-] [3-NPA, 3-Nitropropionic acid]",restriction of CPM (tritiated uracil incorporation),"[1]; 3-NPA 0.006 mg ml, 4-day assay, medium about 30,000 CPM",around 60%
same,inhibition of C. parvum,C. parvum,inhibited
same,IC50,[2]; D6,2820 ng/mL
same,IC90,[2]; D6,2.82 µg/mL
same,IC50,[3]; W2,3.3 µg/mL
same,IC90,[3]; W2,4.61 µg/mL
C=C[C@H]1C[N@@]2CC[C@H]1C[C@H]2[C@H](O)c1ccnc2ccc(OC)cc12 [Quinine],IC50,[2]; [7],4.41 ng/mL
same,IC50,[3]; [8],0.0386 µg/mL
CCN(CC)CCCC(C)Nc1ccnc2cc(Cl)ccc12 (stereo not drawn) [Chloroquin],Concentrations of other compounds that inhibited these clones in this assay,[2]; [9],2.88 ng/mL
same,Concentrations of other compounds that inhibited these clones in this assay,[3]; [10],40.86 ng/mL

# Source: patent publication US20030186352A1, “Apicomplexan chorismate synthase sequences and an inhibitor of the shikimate pathway” (priority 1998, published 2003)
